Where two headings read alike, the source gives them in different places.
Tests used:
Type in all cases: cell-based
[1] = tested on: recombinant NL4-3 virus (nef section replaced with Renilla luciferase gene) in MT-2 cells; assay: HIV cell culture assay (antiviral activity, luciferase readout)
Summary of the method: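 Serial compound dilutions tested in MT-2 cells infected for 4-5 days with 293T-derived NL4-3 virus carrying Renilla luciferase in place of part of nef. Antiviral activity quantified as luciferase activity, read with a live-cell substrate.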

uninfected MT2 cells = assay: Compound cytotoxicity, XTT-based colorimetric assay; settings: day 4, XTT
Summary of the method: (§1)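 Run under the antiviral-assay protocol but without virus. Viability was read on day 4 and CC50 values were derived from the readout.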

[2] = as above; settings: human, uninfected MT2 cells, day 4, XTT
Summary of the method: as §1

[3] = MT-2 cells infected for 4-5 days with recombinant NL4-3 Renilla luciferase virus
[4] = Renilla, NL43, MT-2 cells infected for 4-5 days with recombinant NL4-3 Renilla luciferase virus
[5] = MT-2 cells infected for 4-5 days with recombinant NL4-3 Renilla luciferase virus, read-out: EC50

Compound	EC50 [1, 3]	CC50 (uninfected MT2 cells)	EC50 [1, 4]	EC50 [1, 5]	CC50 at 4 days [2]
CN(C(=O)[C@H](Cc1cc(F)cc(F)c1)NC(=O)NS(=O)(=O)N1CCCC1c1ccccn1)c1ccc2scnc2c1 (single isomer, unassigned) [VN-2]	610 nM	> 100000 nM	–	–	–
CC1CN(S(=O)(=O)NC(=O)N[C@@H](Cc2cc(F)cc(F)c2)C(=O)N(C)c2ccc3scnc3c2)c2ncccc21 (single isomer, unassigned) [VN-15]	–	> 100000 nM	30 nM	–	–
CC1CCc2ccccc2N1S(=O)(=O)NC(=O)N[C@@H](Cc1cc(F)cc(F)c1)C(=O)N(C)c1ccc2scnc2c1 (single isomer, unassigned) [VN-10]	–	> 33300 nM	100 nM	–	–
CN(C(=O)[C@H](Cc1cc(F)cc(F)c1)NC(=O)NS(=O)(=O)N1CCc2cncnc21)c1ccc2scnc2c1 [VN-19]	–	70500 nM	–	680 nM	–
CC1Cc2cccnc2N1S(=O)(=O)NC(=O)N[C@@H](Cc1cc(F)cc(F)c1)C(=O)N(C)c1ccc2scnc2c1 (single isomer, unassigned) [VN-7]	50 nM	> 1000 nM	–	–	–
CN(C)C(=O)C1Cc2cccnc2N1S(=O)(=O)NC(=O)N[C@@H](Cc1cc(F)cc(F)c1)C(=O)N(C)c1ccc2scnc2c1 (single isomer, unassigned) [BB-29]	2430 nM	> 100000 nM	–	–	–
COc1ccc(N(C)C(=O)[C@H](Cc2ccccc2)NC(=O)NS(=O)(=O)NCc2n[nH]c3ccccc23)cc1 [JB-66]	–	> 100000 nM	–	1180 nM	–
CN(C(=O)[C@H](Cc1cc(F)cc(F)c1)NC(=O)NS(=O)(=O)N1CCCC1c1ccccc1)c1ccc2scnc2c1 (single isomer, unassigned) [VN-4]	190 nM	57500 nM	–	–	–
CC1CCc2ccccc2N1S(=O)(=O)NC(=O)N[C@@H](Cc1cc(F)cc(F)c1)C(=O)N(C)c1ccc2scnc2c1 (single isomer, unassigned) [VN-11]	90 nM	93500 nM	–	–	–
COc1ccc(N(C)C(=O)[C@H](Cc2cc(F)cc(F)c2)NC(=O)NS(=O)(=O)N2CCCCC2)cc1F [AW-4]	–	–	480 nM	–	> 100000 nM
CN(C(=O)[C@H](Cc1cc(F)cc(F)c1)NC(=O)NS(=O)(=O)N(C)CCO)c1ccc2scnc2c1 [CA-125]	–	–	160 nM	–	> 100000 nM
CN(C(=O)[C@H](Cc1cc(F)cc(F)c1)NC(=O)NS(=O)(=O)N1CCC(c2ccccc2)CC1)c1ccc2scnc2c1 [CA-156]	–	–	8320 nM	–	99200 nM
COc1ccc(N(C)C(=O)[C@H](Cc2ccccc2)NC(=O)NS(=O)(=O)Nc2ccc(C)cc2)cc1 [JB-26]	–	–	40 nM	–	> 100000 nM
CCOc1ccc(N(CC)C(=O)[C@H](Cc2ccccc2)NC(=O)NS(=O)(=O)n2ccc3ccccc32)cc1 [JB-75]	–	–	70 nM	–	> 33300 nM
Cc1ccc(N(C)C(=O)[C@H](Cc2cc(F)cc(F)c2)NC(=O)NS(=O)(=O)N2CCc3cccnc32)cc1Cl [BB-20]	–	–	60 nM	–	60700 nM
COc1ccc(N(C)C(=O)[C@H](Cc2ccccc2)NC(=O)NS(=O)(=O)Nc2ccccc2F)cc1 [CA-7]	–	–	140 nM	–	> 100000 nM
CN(C(=O)[C@H](Cc1cc(F)cc(F)c1)NC(=O)NS(=O)(=O)N1CCc2c(Cl)ccnc21)c1ccc2scnc2c1 [BB-8]	–	–	440 nM	–	82400 nM

Compound	EC50 [1, 3]	CC50 (uninfected MT2 cells)	EC50 [1, 4]	EC50 [1, 5]	CC50 at 4 days [2]
COc1ccc(N(C)C(=O)[C@H](Cc2ccccc2)NC(=O)NS(=O)(=O)Nc2ccc(F)cc2)cc1 [JB-50]	–	–	100 nM	–	> 100000 nM
CN(C(=O)[C@H](Cc1cc(F)cc(F)c1)NC(=O)NS(=O)(=O)n1ccc2cccnc21)c1ccc2scnc2c1 [VN-8]	–	–	50 nM	–	> 100000 nM
COCCNS(=O)(=O)NC(=O)N[C@@H](Cc1cc(F)cc(F)c1)C(=O)N(C)c1ccc2scnc2c1 [CA-153]	–	–	150 nM	–	9000 nM
CN(C(=O)[C@H](Cc1cc(F)cc(F)c1)NC(=O)NS(=O)(=O)N1CCC[C@H]1CO)c1ccc2scnc2c1 [CA-131]	–	–	210 nM	–	> 100000 nM
CC(C)c1ccc(N(C)C(=O)[C@H](Cc2cc(F)cc(F)c2)NC(=O)NS(=O)(=O)N2CCc3cccnc32)cn1 [BB-18]	–	–	10 nM	–	> 100000 nM
COc1ccc(N(C)C(=O)[C@H](Cc2ccccc2)NC(=O)NS(=O)(=O)Nc2ccc(Oc3ccccc3)cc2)cc1 [CA-18]	–	–	350 nM	–	> 33300 nM
COc1ccc(N(C)C(=O)[C@H](Cc2ccccc2)NC(=O)NS(=O)(=O)Nc2cccc(C)c2)cc1 [JB-24]	–	–	100 nM	–	> 100000 nM
CN(C(=O)[C@H](Cc1cc(F)cc(F)c1)NC(=O)NS(=O)(=O)n1ccc2cncnc21)c1ccc2scnc2c1 [VN-20]	–	> 100000 nM	–	940 nM	–
CN(C(=O)[C@H](Cc1cc(F)cc(F)c1)NC(=O)NS(=O)(=O)N1CCc2cccnc21)c1ccc2c(c1)OCCO2 [ZY-24]	–	–	60 nM	–	53400 nM
COc1ccc(N(C)C(=O)[C@H](Cc2ccccc2)NC(=O)NS(=O)(=O)N2CCCc3ccccc32)cc1 [JB-2]	–	–	110 nM	–	> 33300 nM
COc1ccc(N(C)C(=O)[C@H](Cc2ccccc2)NC(=O)NS(=O)(=O)Nc2ccccc2Oc2ccccc2)cc1 [CA-33]	–	–	2040 nM	–	> 33300 nM
Cc1nc2c(F)c(N(C)C(=O)[C@H](Cc3cc(F)cc(F)c3)NC(=O)NS(=O)(=O)N3CCc4cccnc43)ccc2s1 [GW-21]	–	–	80 nM	–	> 100000 nM
CCOc1ccc(N(CC)C(=O)[C@H](Cc2ccccc2)NC(=O)NS(=O)(=O)N2CCc3cc(OC)cc(C)c32)cc1 [JB-74]	–	–	1120 nM	–	> 100000 nM
CN(C(=O)[C@H](Cc1cc(F)cc(F)c1)NC(=O)NS(=O)(=O)N1CCc2cccnc21)c1ccc2scnc2c1 [ZY-1]	–	–	10 nM	–	> 100000 nM
CN(C(=O)[C@H](Cc1cc(F)cc(F)c1)NC(=O)NS(=O)(=O)N1CCCC1)c1ccc2scnc2c1 [VN-22]	–	–	50 nM	–	> 100000 nM
COc1ccc(N(C)C(=O)[C@H](Cc2ccccc2)NC(=O)NS(=O)(=O)Nc2ccc(-n3cccc3)cc2)cc1 [CA-45]	–	–	520 nM	–	> 33300 nM
COc1ccc(N(C)C(=O)[C@H](Cc2ccccc2)NC(=O)NS(=O)(=O)NC(C)c2csc(C)n2)cc1 (some centres unmarked) [JB-64]	–	–	680 nM	–	> 100000 nM

— US10221129B2, “Inhibitors of human immunodeficiency virus replication” (ViiV HEALTHCARE UK (NO.5) LIMITED, priority 2015, dated 2019)
